Our source for the IC50 and inhibition values is ChEMBL document CHEMBL3044922, “N 1-{4-[(10S)-Dihydroartemisinin-10-oxyl]}phenylmethylene-N 2-(2-methylquinoline-4-yl)hydrazine derivatives as antiplasmodial falcipain-2 inhibitors” (Med Chem Res, 2012).

SMILES strings stand for the structures.

Assay [1] addresses T1, Falcipain 2 (Plasmodium falciparum, UniProt Q9N6S8).
T1 sequence (Q9N6S8 whole entry): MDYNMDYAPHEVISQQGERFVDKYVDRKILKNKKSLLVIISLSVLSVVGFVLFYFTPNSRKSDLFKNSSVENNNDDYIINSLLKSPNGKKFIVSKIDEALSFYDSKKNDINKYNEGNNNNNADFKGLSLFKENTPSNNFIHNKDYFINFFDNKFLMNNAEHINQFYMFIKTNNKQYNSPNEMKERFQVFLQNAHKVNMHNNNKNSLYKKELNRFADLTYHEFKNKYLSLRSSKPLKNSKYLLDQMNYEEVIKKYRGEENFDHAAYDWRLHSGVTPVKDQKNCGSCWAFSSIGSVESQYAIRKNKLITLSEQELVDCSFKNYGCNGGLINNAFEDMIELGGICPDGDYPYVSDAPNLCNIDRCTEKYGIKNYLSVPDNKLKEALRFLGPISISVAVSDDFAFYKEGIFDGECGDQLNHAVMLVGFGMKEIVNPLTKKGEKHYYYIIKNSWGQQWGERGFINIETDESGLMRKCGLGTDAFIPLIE
Kind of assay: Inhibition of Plasmodium falciparum recombinant falcipain 2 expressed in Escherichia coli using Z-Leu-Arg-AMC as substrate incubated for 30 min prior to substrate addition measured for 30 min by fluorometric analysis.

Assay [2] addresses T2, Falcipain 2 (Plasmodium falciparum) (UniProt Q9N6S8).
T2 sequence (whole entry): T1 sequence (Q9N6S8 whole entry)
Kind of assay: Inhibition of Plasmodium falciparum recombinant falcipain 2 expressed in Escherichia coli using Z-Leu-Arg-AMC as substrate at 10 uM incubated for 30 min prior to substrate addition measured for 30 min by fluorometric analysis.

For `Cc1cc(N/N=C/c2ccc(O[C@H]3O[C@@H]4O[C@@]5(C)CC[C@H]6[C@H](C)CC[C@@H]([C@H]3C)[C@@]46OO5)cc2)c2cc(F)ccc2n1`, the IC50 (commonly the midpoint of a concentration-inhibition curve) in assay [1] stood at 670 nM. Besides, the inhibition – broadly, the drop in the measured response relative to a control, in per cent – in assay [2] was 88.6%.
In the same order, the values of `Cc1cc(N/N=C/c2ccc(O[C@H]3O[C@@H]4O[C@@]5(C)CC[C@H]6[C@H](C)CC[C@@H]([C@H]3C)[C@@]46OO5)cc2)c2cc(Br)ccc2n1` are 260 nM and 89.8%.
On to `Cc1cc(N/N=C/c2ccc(O[C@H]3O[C@@H]4O[C@@]5(C)CC[C@H]6[C@H](C)CC[C@@H]([C@H]3C)[C@@]46OO5)cc2)c2cccc(F)c2n1`, for which the IC50 in assay [1] was 280 nM. Also, in assay [2], the inhibition was 84.7%.
In the same order, the values of `CCc1cccc2c(N/N=C/c3ccc(O[C@H]4O[C@@H]5O[C@@]6(C)CC[C@H]7[C@H](C)CC[C@@H]([C@H]4C)[C@@]57OO6)cc3)cc(C)nc12` are 520 nM and 85.1%.
The like results for `Cc1cc(N/N=C/c2ccc(O[C@H]3O[C@@H]4O[C@@]5(C)CC[C@H]6[C@H](C)CC[C@@H]([C@H]3C)[C@@]46OO5)cc2)c2cccc(C)c2n1` were, in that order, 2280 nM and 84.3%.
In the same order, the values of `Cc1cc(N/N=C/c2ccc(O[C@H]3O[C@@H]4O[C@@]5(C)CC[C@H]6[C@H](C)CC[C@@H]([C@H]3C)[C@@]46OO5)cc2)c2c(Cl)ccc(C)c2n1` are 390 nM and 79.4%.
Turning to `Cc1ccc2nc(C)cc(N/N=C/c3ccc(O[C@H]4O[C@@H]5O[C@@]6(C)CC[C@H]7[C@H](C)CC[C@@H]([C@H]4C)[C@@]57OO6)cc3)c2c1`, the IC50 in assay [1] amounted to 780 nM. In addition, the inhibition in assay [2] was found to be 87.2%.
With `Cc1cc(N/N=C/c2ccc(O[C@H]3O[C@@H]4O[C@@]5(C)CC[C@H]6[C@H](C)CC[C@@H]([C@H]3C)[C@@]46OO5)cc2)c2cc(Cl)ccc2n1`, the IC50 in assay [1] came to 150 nM. Moreover, the inhibition in assay [2] worked out at 88.2%.
In the same order, the values of `COc1ccc2nc(C)cc(N/N=C/c3ccc(O[C@H]4O[C@@H]5O[C@@]6(C)CC[C@H]7[C@H](C)CC[C@@H]([C@H]4C)[C@@]57OO6)cc3)c2c1` are 290 nM and 93.7%.
The like results for `Cc1cc(N/N=C/c2ccc(O[C@H]3O[C@@H]4O[C@@]5(C)CC[C@H]6[C@H](C)CC[C@@H]([C@H]3C)[C@@]46OO5)cc2)c2ccc(Cl)c(C)c2n1` were, in that order, 210 nM and 82.6%.
For the compound `Cc1cc(N/N=C/c2ccc(O[C@H]3O[C@@H]4O[C@@]5(C)CC[C@H]6[C@H](C)CC[C@@H]([C@H]3C)[C@@]46OO5)cc2)c2ccccc2n1`, in assay [1], the half-maximal inhibitory concentration (IC50) worked out at 890 nM. The inhibition in assay [2] amounted to 94.1%.
The like results for `Cc1cc(N/N=C/c2ccc(O[C@H]3O[C@@H]4O[C@@]5(C)CC[C@H]6[C@H](C)CC[C@@H]([C@H]3C)[C@@]46OO5)cc2)c2ccc(Cl)cc2n1` were, in that order, 170 nM and 88.4%.
The like results for `Cc1cc(N/N=C/c2ccc(O[C@H]3O[C@@H]4O[C@@]5(C)CC[C@H]6[C@H](C)CC[C@@H]([C@H]3C)[C@@]46OO5)cc2)c2ccc(C)c(C)c2n1` were, in that order, 840 nM and 79.4%.
The like results for `Cc1cc(N/N=C/c2ccc(O[C@H]3O[C@@H]4O[C@@]5(C)CC[C@H]6[C@H](C)CC[C@@H]([C@H]3C)[C@@]46OO5)cc2)c2cccc(Br)c2n1` were, in that order, 840 nM and 94.1%.
As for `CC(C)C[C@H](NC(=O)[C@H]1O[C@@H]1C(=O)O)C(=O)NCCCCN=C(N)N` [E-64], the IC50 in assay [1] stood at 20 nM. Also, the inhibition in assay [2] amounted to 92%.
